# Data reported in patent US9034855B2, “Substituted phenylacetate and phenylpropane amides and use thereof” (Bayer Intellectual Property GmbH, priority 2010, dated 2015).
# Columns and labels:
# human V1a receptor = molecular target: T1, human V1a receptor (Homo sapiens, UniProt P37288); assay: Cellular in vitro assay for determining the vasopressin receptor activity (aequorin luminescence, recombinant CHO cells), human V1a; format: cell-based; conditions: CHO cells expressing aequorin, transfected with human V1a receptor; agonist [Arg8]-vasopressin; read-out: IC50 hV1a
# T1 construct: expressed in transfected cells; host or cells: CHO K1 (ATCC), constitutively expressing modified aequorin
# T1 sequence (P37288 whole entry): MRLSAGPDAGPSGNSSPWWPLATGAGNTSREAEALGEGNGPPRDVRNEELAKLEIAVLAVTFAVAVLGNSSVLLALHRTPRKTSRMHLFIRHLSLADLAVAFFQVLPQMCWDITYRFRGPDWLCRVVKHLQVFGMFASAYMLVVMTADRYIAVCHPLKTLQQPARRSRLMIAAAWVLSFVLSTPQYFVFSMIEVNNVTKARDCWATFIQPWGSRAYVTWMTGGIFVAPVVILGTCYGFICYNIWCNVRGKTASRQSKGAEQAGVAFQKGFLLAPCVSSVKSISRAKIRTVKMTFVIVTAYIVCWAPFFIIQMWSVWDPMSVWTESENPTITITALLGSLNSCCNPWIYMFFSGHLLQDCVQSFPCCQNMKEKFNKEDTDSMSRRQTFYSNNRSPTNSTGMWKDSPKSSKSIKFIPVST
# Description: (§1) B-1. Cellular In Vitro Assay for Determining the Vasopressin Receptor Activity
# (§2) The identification of agonists and antagonists of the V1a and V2 vasopressin receptors from humans and rats and also the quantification of the activity of the substances described here takes place using recombinant cell lines. These cells derive originally from a hamster's ovary epithelial cell (Chinese Hamster Ovary, CHO K1, ATCC: American Type Culture Collection, Manassas, Va. 20108, USA). The test cell lines constitutively express a modified form of the calcium-sensitive photoprotein aequorin, which, after reconstitution with the cofactor coelenterazine, emits light when there are increases in the free calcium concentration (Rizzuto R., Simpson A. W., Brini M., Pozzan T.; Nature 358 (1992) 325-327). In addition, the cells are stably transfected with the human or rat V1a or V2 receptors. In the case of the Gs-coupling V2 receptors, the cells are stably transfected with a further gene, which codes for the promiscuous Gα16 protein (Amatruda T. T., Steele D. A., Slepak V. Z., Simon M A., Proc. Na. Acad. Sci. USA 88 (1991), 5587-5591), either independently or as a fusion gene. The resulting vasopressin receptor test cells react to stimulation of the recombinantly expressed vasopressin receptors by intracellular release of calcium ions, which can be quantified by the resulting aequorin luminescence using a suitable luminometer (Milligan G., Marshall F., Rees S., Trends in Pharmaco. Sci. 17 (1996) 235-237).
# (§3) On the day before the assay, the cells are plated out in culture medium (DMEM, 10% FCS, 2 mM glutamine, 10 mM HEPES) in 384-well microtiter plates and kept in a cell incubator (96% atmospheric humidity, 5% v/v carbon dioxide, 37° C.). On the day of the assay, the culture medium is replaced by a Tyrode solution (140 mM sodium chloride, 5 mM potassium chloride, 1 mM magnesium chloride, 2 mM calcium chloride, 20 mM glucose, 20 mM HEPES), which additionally contains the cofactor coelenterazine (50 μM), and the microtiter plate is then incubated for a further 3-4 hours. The test substances in various concentrations are placed for 10 to 20 minutes in the wells of the microtiter plate before the agonist [Arg8]-vasopressin is added, and the resulting light signal is measured immediately in the luminometer. The IC50 values are calculated using the GraphPad PRISM computer program (Version 3.02).
# (§4) Table A below lists representative IC50 values for the compounds according to the invention transfected with the human V1a or V2 receptor: […]
# human V2 receptor = molecular target: T2, human V2 receptor (Homo sapiens, UniProt P30518); assay: Cellular in vitro assay for determining the vasopressin receptor activity (aequorin luminescence, recombinant CHO cells), human V2; format: cell-based; conditions: CHO cells expressing aequorin and Gα16, transfected with human V2 receptor; agonist [Arg8]-vasopressin; read-out: IC50 hV2
# T2 construct: expressed in transfected cells; host or cells: CHO K1 (ATCC), constitutively expressing modified aequorin, co-transfected with promiscuous G-alpha-16
# T2 sequence (P30518 whole entry): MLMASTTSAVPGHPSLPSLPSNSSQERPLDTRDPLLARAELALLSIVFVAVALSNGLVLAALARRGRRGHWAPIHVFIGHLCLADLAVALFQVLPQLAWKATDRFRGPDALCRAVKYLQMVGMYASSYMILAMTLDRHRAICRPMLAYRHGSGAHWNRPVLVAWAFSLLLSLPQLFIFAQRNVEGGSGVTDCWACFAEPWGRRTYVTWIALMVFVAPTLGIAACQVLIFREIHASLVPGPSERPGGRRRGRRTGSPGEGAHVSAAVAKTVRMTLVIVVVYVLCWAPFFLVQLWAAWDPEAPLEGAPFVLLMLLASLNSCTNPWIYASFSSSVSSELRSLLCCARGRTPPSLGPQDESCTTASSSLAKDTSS
# Description: as §1, §2, §3, §4
# [1] = Determination of the solubility; format: physicochemical; conditions: aqueous buffer, kinetic from dmso stock; PBS buffer pH 6.5, 20° C., 24 hours shaking, from DMSO solution
# Protocol: B-6. Determination of the Solubility
# Reagents Required: • PBS buffer pH 6.5: 90.00 g of NaCl p.a. (for example from Merck, Art. No. 1.06404.1000), 13.61 g of KH2PO4 p.a. (for example from Merck, Art. No. 1.04873.1000) and 83.35 g of 1N aqueous sodium hydroxide solution (for example from Bernd Kraft GmbH, Art. No. 01030.4000) are weighed into a 1 liter measuring flask, the flask is filled with distilled water to 1 liter and the mixture is stirred for 1 hour. Using 1N hydrochloric acid (for example from Merck, Art. No. 1.09057.1000) the pH is then adjusted to 6.5. • PEG/water solution (30:70 v/v): 30 ml of polyethylene glycol 400 (for example from Merck, Art. No. 8.17003.1000) and 70 ml of distilled water are homogenized in a 100 ml measuring flask. • PEG/PBS buffer pH 6.5 (80:20 v/v): 80 ml of polyethylene glycol 400 (for example from Merck, Art. No. 8.17003.1000) and 20 ml of PBS buffer pH 6.5 are homogenized in a 100 ml measuring flask. • Dimethyl sulphoxide (for example from Baker, Art. No. 7157.2500) • Distilled water.
# Preparation of the Starting Solution (Original Solution):
# At least 4 mg of the test substance are weighed accurately into a wide-necked 10 mm screw V vial (from Glastechnik Gräfenroda GmbH, Art. No. 8004-WM-H/V150 with fitting screw cap and septum, in a pipetting robot DMSO is added to a concentration of 50 mg/ml and the mixture is shaken for 10 minutes.
# Preparation of the Calibration Solutions:
# Preparation of the starting solution for calibration solutions (stock solution): With the aid of a pipetting robot, 10 μl of the original solution are transferred into a microtiter plate and made up with DMSO to a concentration of 600 μg/ml. The sample is shaken until everything has gone into solution.
# Calibration solution 1 (20 μg/ml): 1000 μl of DMSO are added to 34.4 μl of the stock solution, and the mixture is homogenized.
# Calibration solution 2 (2.5 μg/ml): 700 μl of DMSO are added to 100 μl of calibration solution 1, and the mixture is homogenized.
# Preparation of the Sample Solutions:
# Sample solution for solubilities of up to 5 g/liter in PBS buffer pH 6.5: 10 μl of the original solution are transferred into a microtiter plate, and 1000 μl of PBS buffer pH 6.5 are added.
# The sample solutions prepared in this manner are shaken at 1400 rpm in a temperature-adjustable shaker (for example Eppendorf Thermomixer comfort Art. No. 5355 000.011 with interchangeable block Art. No. 5362.000.019) at 20° C. for 24 hours. In each case 180 μl are taken from these solutions and transferred into Beckman Polyallomer Centrifuge Tubes (Art. No. 343621). These solutions are centrifuged at about 223 000×g for one hour (for example Beckman Optima L-90K Ultracentrifuge with Type 42.2 Ti Rotor at 42 000 rpm). From each of the sample solutions, 100 μl of the supernatant are removed and diluted 1:5 and 1:100 with DMSO. From each dilution, a sample is transferred into a vessel suitable for HPLC analysis.
# The samples are analysed by RP-HPLC. Quantification is carried out using a two-point calibration curve of the test compound in DMSO. The solubility is expressed in mg/liter. Analysis sequence: 1) calibration solution […]; 2) calibration solution 20 μg/ml; 3) sample solution 1:5; 4) sample solution 1:100.
# Agilent 1100 with DAD (G1315A), quat. pump (G1311A), autosampler CTC HTS PAL, degasser (G1322A) and column thermostat (G1316A); column: Phenomenex Gemini C18, 50 mm×2 mm, 5μ; temperature: 40° C.; mobile phase A: water/phosphoric acid pH 2; mobile phase B: acetonitrile; flow rate: 0.7 ml/min; gradient: 0-0.5 min 85% A, 15% B; ramp: 0.5-3 min 10% A, 90% B; 3-3.5 min 10% A, 90% B; ramp: 3.5-4 min 85% A, 15% B; 4-5 min 85% A, 15% B. […]
Compound,IC50 (human V1a receptor) [nM],IC50 (human V2 receptor) [nM],solubility at 24 h [1] [µg/mL]
"O=C(Cn1nc(-c2ccc(Cl)cc2)n(C[C@H](O)C(F)(F)F)c1=O)NC(C(=O)NCCO)c1cccc(OC(F)(F)F)c1 (stereo partly drawn) [Example 52, 2-[({3-(4-Chlorophenyl)-5-oxo-4-[(2S)-3,3,3-trifluoro-2-hydroxypropyl]-4,5-dihydro-1H-1,2,4-triazol-1-yl}acetyl)amino]-N-(2-hydroxyethyl)-2-[3-(trifluoromethoxy)phenyl]acetamide]",9.7,42,100
"CC(C)(NC(=O)C(NC(=O)Cn1nc(-c2ccc(Cl)cc2)n(/C=C/C(F)(F)F)c1=O)c1ccccc1C(F)(F)F)C(N)=O (racemic) [Example 31, N^2-{[({3-(4-Chlorophenyl)-5-oxo-4-[(1E)-3,3,3-trifluoroprop-1-en-1-yl]-4,5-dihydro-1H-1,2,4-triazol-1-yl}acetyl)amino][2-(trifluoromethyl)phenyl]acetyl}-2-methylalaninamide]",7.8,1180,110
"CC(C)(NC(=O)[C@](C)(NC(=O)Cn1nc(-c2ccc(Cl)cc2)n(C[C@H](O)C(F)(F)F)c1=O)c1cccc(C(F)(F)F)c1)C(=O)O [Example 21, N-{(2R)-2-[({3-(4-Chlorophenyl)-5-oxo-4-[(2S)-3,3,3-trifluoro-2-hydroxypropyl]-4,5-dihydro-1H-1,2,4-triazol-1-yl}acetyl)amino]-2-[3-(trifluoromethyl)phenyl]propanoyl}-2-methylalanine]",1,0.8,360
"O=C(C[C@H](NC(=O)Cn1nc(-c2ccc(Cl)cc2)n(C[C@H](O)C(F)(F)F)c1=O)c1cccc(C(F)(F)F)c1)NCCO [Example 54, (3S)-3-[({3-(4-Chlorophenyl)-5-oxo-4-[(2S)-3,3,3-trifluoro-2-hydroxypropyl]-4,5-dihydro-1H-1,2,4-triazol-1-yl}acetyl)amino]-N-(2-hydroxyethyl)-3-[3-(trifluoromethyl)phenyl]propanamide]",3.8,2.6,400
"O=C(Cn1nc(-c2ccc(Cl)cc2)n(C2CC2)c1=O)NC(C(=O)NC1(C(=O)O)CC1)c1cccc(C(F)(F)F)c1 (racemic) [Example 6, 1-({({[3-(4-Chlorophenyl)-4-cyclopropyl-5-oxo-4,5-dihydro-1H-1,2,4-triazol-1-yl]acetyl}-amino)[3-(trifluoromethyl)phenyl}acetyl]amino)cyclopropanecarboxylic acid]",47,324,340
"COCCn1c(-c2ccc(Cl)s2)nn(CC(=O)NC(C(=O)NC(C)(C)C(=O)O)c2cccc(C(F)(F)F)c2)c1=O (racemic) [Example 10, N-{({[3-(5-Chloro-2-thienyl)-4-(2-methoxyethyl)-5-oxo-4,5-dihydro-1H-1,2,4-triazol-1-yl]acetyl}-amino) [3-(trifluoromethyl)phenyl}acetyl]-2-methylalanine]",150,960,360
